According to US7517874B2 (priority 2007, dated 2009):
Like-named read-outs stand apart in the source and are kept apart here.

Tests used:
[1] = molecular target: human CB1 receptor (hCB1) (Homo sapiens, UniProt P21554); test: cell-based; assay type: cell-based; conditions: for +/− HCB1: agonist or inverse agonist at hCB1
Summary of the method: (§1)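 First, cells in IBMX-containing HEPES-buffered HBSS are raised to elevated cAMP with 2-8 μM NKH-477 for 30 min. Data are normalised to the forskolin and forskolin + 1 μM CP55,940 controls.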

[2] = molecular target: T1, rat CB2 receptor (rCB2) (Rattus norvegicus, UniProt Q9QZN9); test: cell-based; assay type: cell-based; conditions: for +/− RCB2: agonist or inverse agonist at rCB2
T1 sequence (Q9QZN9 1-360): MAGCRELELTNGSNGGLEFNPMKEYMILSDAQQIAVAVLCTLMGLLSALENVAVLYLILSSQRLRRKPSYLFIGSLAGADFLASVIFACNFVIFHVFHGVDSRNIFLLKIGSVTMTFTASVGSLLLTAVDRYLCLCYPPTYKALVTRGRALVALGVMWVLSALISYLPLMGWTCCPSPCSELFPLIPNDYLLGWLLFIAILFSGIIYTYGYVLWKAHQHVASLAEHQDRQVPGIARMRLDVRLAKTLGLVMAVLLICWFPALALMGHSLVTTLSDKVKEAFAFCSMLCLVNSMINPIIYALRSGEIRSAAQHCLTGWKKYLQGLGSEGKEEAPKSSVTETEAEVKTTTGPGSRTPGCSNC
Summary of the method: as §1

Chain of human CB1 receptor (hCB1) (P21554 whole entry): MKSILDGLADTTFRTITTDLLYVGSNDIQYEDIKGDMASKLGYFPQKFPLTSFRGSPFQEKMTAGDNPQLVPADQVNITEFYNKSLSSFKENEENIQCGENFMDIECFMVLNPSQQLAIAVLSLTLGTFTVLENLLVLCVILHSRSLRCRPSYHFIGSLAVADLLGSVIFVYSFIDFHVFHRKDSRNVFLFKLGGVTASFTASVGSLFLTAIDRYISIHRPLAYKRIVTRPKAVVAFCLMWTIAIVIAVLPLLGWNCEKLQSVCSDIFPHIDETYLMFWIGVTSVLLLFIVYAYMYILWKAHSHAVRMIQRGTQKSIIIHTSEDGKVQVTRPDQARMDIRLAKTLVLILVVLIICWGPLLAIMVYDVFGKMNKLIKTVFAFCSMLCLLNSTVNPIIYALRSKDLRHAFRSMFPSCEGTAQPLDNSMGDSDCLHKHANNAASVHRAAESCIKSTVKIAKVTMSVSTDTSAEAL

Row | Structure (SMILES) | +/− HCB1 [1] | +/− RCB2 [2] | further results
1 | CN1CCCn2c(-c3ccc(Cl)c(F)c3)nc(C(=O)N[C@H](C(N)=O)C(C)(C)C)c2C1 [Compound 577, (S)-N-(1-amino-3,3-dimethyl-1-oxobutan-2-yl)-3-(4-chloro-3-fluorophenyl)-8-methyl-6,7,8,9-tetrahydro-5H-imidazo[1,5-a][1,4]diazepine-1-carboxamide] | + | + | 
2 | CN1CCCn2c(-c3ccc(F)cc3F)nc(C(=O)N[C@H](C(N)=O)C(C)(C)C)c2C1 [Compound 578, (S)-N-(1-amino-3,3-dimethyl-1-oxobutan-2-yl)-3-(2,4-difluorophenyl)-8-methyl-6,7,8,9-tetrahydro-5H-imidazo[1,5-a][1,4]diazepine-1-carboxamide] | + | + | 
3 | CN1CCCn2c(-c3cc(F)c(F)cc3F)nc(C(=O)N[C@H](C(N)=O)C(C)(C)C)c2C1 [Compound 579, (S)-N-(1-amino-3,3-dimethyl-1-oxobutan-2-yl)-8-methyl-3-(2,4,5-trifluorophenyl)-6,7,8,9-tetrahydro-5H-imidazo[1,5-a][1,4]diazepine-1-carboxamide] | + | + | 
4 | CN1CCCn2c(-c3cc(Cl)c(F)cc3F)nc(C(=O)N[C@H](C(N)=O)C(C)(C)C)c2C1 [Compound 580, (S)-N-(1-amino-3,3-dimethyl-1-oxobutan-2-yl)-3-(5-chloro-2,4-difluorophenyl)-8-methyl-6,7,8,9-tetrahydro-5H-imidazo[1,5-a][1,4]diazepine-1-carboxamide] | + | + | 
5 | CN1CCCn2c(-c3ccc(F)c(F)c3)nc(C(=O)N[C@H](C(N)=O)C(C)(C)C)c2C1 [Compound 581, (S)-N-(1-amino-3,3-dimethyl-1-oxobutan-2-yl)-3-(3,4-difluorophenyl)-8-methyl-6,7,8,9-tetrahydro-5H-imidazo[1,5-a][1,4]diazepine-1-carboxamide] | + | + | 
6 | CN1CCCn2c(-c3ccccc3)nc(C(=O)N[C@H](C(N)=O)C(C)(C)C)c2C1 [Compound 582] |  | + | EC50 [1]: > 10000 nM
7 | CN1CCCn2c(-c3cc(F)ccc3F)nc(C(=O)N[C@@H](CC(C)(C)C)C(N)=O)c2C1 [Compound 583, (S)-N-(1-amino-4,4-dimethyl-1-oxopentan-2-yl)-3-(2,5-difluorophenyl)-8-methyl-6,7,8,9-tetrahydro-5H-imidazo[1,5-a][1,4]diazepine-1-carboxamide] | + | + | 
8 | CN1CCCn2c(-c3ccc(Cl)cc3F)nc(C(=O)N[C@@H](CC(C)(C)C)C(N)=O)c2C1 [Compound 584, (S)-N-(1-amino-4,4-dimethyl-1-oxopentan-2-yl)-3-(4-chloro-2-fluorophenyl)-8-methyl-6,7,8,9-tetrahydro-5H-imidazo[1,5-a][1,4]diazepine-1-carboxamide] | + | + | 
9 | CN1CCCn2c(-c3cc(Cl)ccc3F)nc(C(=O)N[C@@H](CC(C)(C)C)C(N)=O)c2C1 [Compound 585, (S)-N-(1-amino-4,4-dimethyl-1-oxopentan-2-yl)-3-(5-chloro-2-fluorophenyl)-8-methyl-6,7,8,9-tetrahydro-5H-imidazo[1,5-a][1,4]diazepine-1-carboxamide] | + | + | 
10 | CN1CCCn2c(-c3ccc(F)c(F)c3)nc(C(=O)N[C@@H](CC(C)(C)C)C(N)=O)c2C1 [Compound 586, (S)-N-(1-amino-4,4-dimethyl-1-oxopentan-2-yl)-3-(3,4-difluorophenyl)-8-methyl-6,7,8,9-tetrahydro-5H-imidazo[1,5-a][1,4]diazepine-1-carboxamide] | + | + | 
11 | CN1CCCn2c(-c3ccc(F)c(Cl)c3)nc(C(=O)N[C@@H](CC(C)(C)C)C(N)=O)c2C1 [Compound 587, (S)-N-(1-amino-4,4-dimethyl-1-oxopentan-2-yl)-3-(3-chloro-4-fluorophenyl)-8-methyl-6,7,8,9-tetrahydro-5H-imidazo[1,5-a][1,4]diazepine-1-carboxamide] | + | + | 
12 | CN1CCCn2c(-c3ccc(Cl)c(F)c3)nc(C(=O)N[C@@H](CC(C)(C)C)C(N)=O)c2C1 [Compound 588, (S)-N-(1-amino-4,4-dimethyl-1-oxopentan-2-yl)-3-(4-chloro-3-fluorophenyl)-8-methyl-6,7,8,9-tetrahydro-5H-imidazo[1,5-a][1,4]diazepine-1-carboxamide] | + | + | 
13 | CN1CCCn2c(-c3ccc(F)cc3F)nc(C(=O)N[C@@H](CC(C)(C)C)C(N)=O)c2C1 [Compound 589, (S)-N-(1-amino-4,4-dimethyl-1-oxopentan-2-yl)-3-(2,4-difluorophenyl)-8-methyl-6,7,8,9-tetrahydro-5H-imidazo[1,5-a][1,4]diazepine-1-carboxamide] | + | + | 
14 | CN1CCCn2c(-c3cc(F)c(F)cc3F)nc(C(=O)N[C@@H](CC(C)(C)C)C(N)=O)c2C1 [Compound 590, (S)-N-(1-amino-4,4-dimethyl-1-oxopentan-2-yl)-8-methyl-3-(2,4,5-trifluorophenyl)-6,7,8,9-tetrahydro-5H-imidazo[1,5-a][1,4]diazepine-1-carboxamide] | + | + | 
15 | CN1CCCn2c(-c3cc(Cl)c(F)cc3F)nc(C(=O)N[C@@H](CC(C)(C)C)C(N)=O)c2C1 [Compound 591, (S)-N-(1-amino-4,4-dimethyl-1-oxopentan-2-yl)-3-(5-chloro-2,4-difluorophenyl)-8-methyl-6,7,8,9-tetrahydro-5H-imidazo[1,5-a][1,4]diazepine-1-carboxamide] | + | + | 
16 | CNC(=O)[C@H](Cc1cscn1)NC(=O)c1nc(-c2cc(F)c(F)cc2F)n2c1CN(C)CCC2 [Compound 592, (S)-8-methyl-N-(1-(methylamino)-1-oxo-3-(thiazol-4-yl)propan-2-yl)-3-(2,4,5-trifluorophenyl)-6,7,8,9-tetrahydro-5H-imidazo[1,5-a][1,4]diazepine-1-carboxamide] |  |  | EC50 [1]: > 10000 nM; EC50 [2]: > 10000 nM
17 | CNC(=O)[C@H](Cc1cscn1)NC(=O)c1nc(-c2cc(Cl)c(F)cc2F)n2c1CN(C)CCC2 [Compound 593, (S)-3-(5-chloro-2,4-difluorophenyl)-8-methyl-N-(1-(methylamino)-1-oxo-3-(thiazol-4-yl)propan-2-yl)-6,7,8,9-tetrahydro-5H-imidazo[1,5-a][1,4]diazepine-1-carboxamide] | + | + | 
18 | CNC(=O)[C@@H](NC(=O)c1nc(C2=CCOCC2)n2c1CN(C)CCC2)C(C)(C)C [Compound 594, (S)-3-(3,6-dihydro-2H-pyran-4-yl)-N-(3,3-dimethyl-1-(methylamino)-1-oxobutan-2-yl)-8-methyl-6,7,8,9-tetrahydro-5H-imidazo[1,5-a][1,4]diazepine-1-carboxamide] | + | + | 
19 | CN1CCCn2c(-c3ccccc3)nc(C(=O)Nc3cc(C(C)(C)C)on3)c2C1 [Compound 595, N-(5-tert-butylisoxazol-3-yl)-8-methyl-3-phenyl-6,7,8,9-tetrahydro-5H-imidazo[1,5-a][1,4]diazepine-1-carboxamide] |  | − | EC50 [1]: > 10000 nM
20 | CN1CCCn2c(-c3ccccc3)nc(C(=O)Nc3nc(C(C)(C)C)cs3)c2C1 [Compound 596, N-(4-tert-butylthiazol-2-yl)-8-methyl-3-phenyl-6,7,8,9-tetrahydro-5H-imidazo[1,5-a][1,4]diazepine-1-carboxamide] |  |  | EC50 ([1]; groups >100 nM-10 μM and >10 μM, cAMP, CHO-K1 hCB1, read-out: EC50 HCB1): > 10000 nM; EC50 ([2]; groups >100 nM-10 μM and >10 μM, cAMP, CHO-K1 rCB2, read-out: EC50 RCB2): > 10000 nM
21 | CNC(=O)[C@@H](NC(=O)c1nc(Cl)n2c1CNCCC2)C(C)(C)C [Compound 597, (S)-3-chloro-N-(3,3-dimethyl-1-(methylamino)-1-oxobutan-2-yl)-6,7,8,9-tetrahydro-5H-imidazo[1,5-a][1,4]diazepine-1-carboxamide] |  | + | EC50 [1]: > 10000 nM
22 | CNC(=O)[C@@H](NC(=O)c1nc(Cl)n2c1CN(C)CCC2)C(C)(C)C [Compound 598, (S)-3-chloro-N-(3,3-dimethyl-1-(methylamino)-1-oxobutan-2-yl)-8-methyl-6,7,8,9-tetrahydro-5H-imidazo[1,5-a][1,4]diazepine-1-carboxamide] |  | + | EC50 [1]: > 10000 nM
23 | CNC(=O)[C@@H](NC(=O)c1nc(-c2cc(C(F)(F)F)cc(C(F)(F)F)c2)n2c1CN(C)CCC2)C(C)(C)C [Compound 599, (S)-3-(3,5-bis(trifluoromethyl)phenyl)-N-(3,3-dimethyl-1-(methylamino)-1-oxobutan-2-yl)-8-methyl-6,7,8,9-tetrahydro-5H-imidazo[1,5-a][1,4]diazepine-1-carboxamide] |  |  | EC50 [1]: > 10000 nM; EC50 [2]: > 10000 nM
24 | CNC(=O)[C@@H](NC(=O)c1nc(-c2ccc(Br)cc2F)n2c1CN(C)CCC2)C(C)(C)C [Compound 600, (S)-3-(4-bromo-2-fluorophenyl)-N-(3,3-dimethyl-1-(methylamino)-1-oxobutan-2-yl)-8-methyl-6,7,8,9-tetrahydro-5H-imidazo[1,5-a][1,4]diazepine-1-carboxamide] | + |  | EC50 [2]: > 10000 nM
